Measurements from patent US11013746B2, “Drug for preventing and/or treating polycystic kidney disease” (OTSUKA PHARMACEUTICAL CO., LTD., priority 2012, dated 2021).

Tested on: pcy mice
Assay: Effect of tolvaptan and octreotide, alone or combined, on kidney weight of pcy mice (PKD model animals)
Type: in vivo
Settings: male pcy mice, 0.03% tolvaptan in feed and/or octreotide 300 μg/kg × 2/day sc; for kidney weight suppressive effect compared to the pcy control group: 15 weeks of age, Dunnett's test; for Kidney weight (% body weight) Mean ± SE: 15 weeks old at autopsy, treated from 5 to 15 weeks of age, pcy control 8.02 ± 0.66, normal DBA 1.53 ± 0.04
Description: Individual or combined effects of tolvaptan, which is a vasopressin receptor antagonist, and octreotide, which is a somatostatin analogue, against polycystic kidney disease were evaluated using pcy mice, which are PKD model animals.
The aforementioned pcy mice are adult polycystic kidney disease model mice, and the mode of inheritance is autosomal recessive. […] It has been reported that compared to wild-type mice, pcy mice have increased renal cAMP levels and elevated renal mRNA levels of aquaporin-2 and vasopressin V2 receptor (V2R). For details, see Non-patent Literature (NPL) 1.
Based on the body weight at 4 weeks of age and the renal volume measured by MRI, the pcy mice (male) were divided into the following four groups (each group: 9 mice):
(2) a group receiving a feed containing 0.03% tolvaptan;
(3) a group receiving octreotide (300 μg/kg×2/day sc); and
(4) a group receiving a feed containing 0.03% tolvaptan, and octreotide (300 μg/kg×2/day sc).
As normal control mice, DBA/2JJcl mice (5 mice) were used. A 0.03% tolvaptan-containing MF feed was given to the groups receiving tolvaptan. A MF feed not containing tolvaptan was given to the other groups, i.e., the control group and the group receiving octreotide alone. Sandostatin® subcutaneous injection (100 μg/ml) was diluted with physiological saline and subcutaneously injected in an amount of 300 μg/kg/10 ml to the group receiving octreotide twice a day, morning and evening.
The drug treatment was started from 5 weeks of age, and continued until 15 weeks of age. Urine was collected from each mouse at 14 weeks of age using metabolic cages for 19 hours, and urine volume and urinary albumin excretion were measured.
The DBA control mice and pcy mice were sacrificed under isoflurane anesthesia at 15 weeks of age to collect their blood, and right and left kidneys. Plasma parameters were measured from the obtained blood, and the weight of right and left kidneys was measured.

(−)-D-phenylalanyl-L-cysteinyl-L-phenylalanyl-D-tryptophyl-L-lysyl-L-threonyl-N-[(1R,2R)-2-hydroxy-1-(hydroxymethyl)propyl]-L-cysteinamide cyclic (2-47) disulfide [octreotide]
kidney weight suppressive effect compared to the pcy control group: did not exhibit significant kidney weight suppressive effects | Kidney weight (% body weight) Mean ± SE: 6.68 ± 0.65 % body weight

Cc1ccccc1C(=O)Nc1ccc(C(=O)N2CCCC(O)c3cc(Cl)ccc32)c(C)c1 (stereo not shown) [tolvaptan, 7-chloro-5-hydroxy-1-[2-methyl-4-(2-methylbenzoylamino)benzoyl]-2,3,4,5-tetrahydro-1H-benzoazepine]
kidney weight suppressive effect compared to the pcy control group: did not exhibit significant kidney weight suppressive effects | Kidney weight (% body weight) Mean ± SE: 7.28 ± 0.84 % body weight
